Measured values reported in patent US7754741B2, “Pyridine derivatives as fungicidal compounds” (Bayer Cropscience S.A., priority 2003, dated 2010).

Key:
[1] = test system: Erysiphe graminis f. sp. tritici; assay: In vivo test on Erysiphe graminis f. sp. tritici (wheat powdery mildew); conditions: Blumeria graminis, wheat plants sprayed 24 hours before contamination, grading 7 to 14 days after contamination vs control plants, read-out: protection (good (at least 50%) to total)
Description: In Vivo Test on Erysiphe graminis f. sp. tritici (Wheat Powdery Mildew)
(§1) The active ingredient tested is prepared by potter homogenisation in a concentrated suspension type formulation at 100 g/l. This suspension is then diluted with water to obtain the desired active material concentration.
Wheat plants (Audace variety) in starter cups, sown on 50/50 peat soil-pozzolana substrate and grown at 12° C., are treated at the 1-leaf stage (10 cm tall) by spraying with the aqueous suspension described above.
(§2) Plants, used as controls, are treated with an aqueous solution not containing the active material.
After 24 hours, the plants are contaminated by dusting them with Erysiphe graminis f. sp. tritici spores, the dusting being carried out using diseased plants. Grading is carried out 7 to 14 days after the contamination, in comparison with the control plants.
Under these conditions, good (at least 50%) to total protection is observed at a dose of 330 ppm with the following compounds: A-4, B-4, B-8, C-2, C-3, C-12, D-4, F-1, H-1, H-2, H-4, H-20, I-3, J-1, J-2, J-3, J-19, J-20, J-31, J-37, J-40, J-55, J-57, J-58, J-59, J-61, K-1, M-5, M-6, R-1, R-10, R-26, R-29, V-7.

Alternaria brassicae = assay: In vivo test on Alternaria brassicae (leaf spot of crucifers); conditions: Alternaria brassicae; dose 330 ppm; radish plants sprayed 24 hours before contamination; grading 6 to 7 days after contamination vs control plants; read-out: protection (good (at least 50%) to total)
Description: In Vivo Test on Alternaria brassicae (Leaf Spot of crucifers)
as §1
Radish plants (Pernot variety) in starter cups, sown on a 50/50 peat soil-pozzolana substrate and grown at 18-20° C., are treated at the cotyledon stage by spraying with the aqueous suspension described above.
as §2
After 24 hours, the plants are contaminated by spraying them with an aqueous suspension of Alternaria brassicae spores (40,000 spores per cm^3). The spores are collected from a 12-13-day-old culture.
The contaminated radish plants are incubated for 6-7 days at about 18° C., under a humid atmosphere.
Grading is carried out 6 to 7 days after the contamination, in comparison with the control plants.

Pyrenophora teres = assay: In vivo test on Pyrenophora teres (barley net blotch); conditions: Pyrenophora teres, 288 h; dose 330 ppm; barley plants sprayed 24 hours before contamination; grading 12 days after contamination vs control plants; read-out: protection (good (at least 50%) to total)
Description: In Vivo Test on Pyrenophora teres (Barley Net Blotch)
as §1
(§3) Barley plants (Express variety) in starter cups, sown on a 50/50 peat soil-pozzolana substrate and grown at 12° C., are treated at the 1-leaf stage (10 cm tall) by spraying with the aqueous suspension described above. Plants, used as controls, are treated with an aqueous solution not containing the active material.
After 24 hours, the plants are contaminated by spraying them with an aqueous suspension of Pyrenophora teres spores (12,000 spores per ml). The spores are collected from a 12-day-old culture The contaminated barley plants are incubated for 24 hours at about 20° C. and at 100% relative humidity, and then for 12 days at 80% relative humidity.

Botrytis cinerea = assay: In vivo test on Botrytis cinerea (cucumber grey mould); conditions: Botrytis cinerea; dose 330 ppm; cucumber plants sprayed 24 hours before contamination; grading 5/7 days after contamination vs control plants; read-out: protection (good (at least 50%) to total)
Description: In Vivo Test on Botrytis cinerea (Cucumber Grey Mould)
as §1
as §3, with “Cucumber” for “Barley”, “(Marketer” for “(Express”, “18-20°” for “12°”, “cotyledon Z11” for “1-leaf”, “stage” for “stage (10 cm tall)”
After 24 hours, the plants are contaminated by depositing drops of an aqueous suspension of Botrytis cinerea spores (150,000 spores per ml) on upper surface of the leaves. The spores are collected from a 15-day-old culture and are suspended in a nutrient solution composed of: • 20 g/L of gelatin • 50 g/L of cane sugar • 2 g/L of NH4NO3 • 1 g/L of KH2PO4
The contaminated cucumber plants are settled for 5/7 days in a climatic room at 15-11° C. (day/night) and at 80% relative humidity.
Grading is carried out 5/7 days after the contamination, in comparison with the control plants. Under these conditions, good (at least 50%) to total protection is observed at a dose of 330 ppm with the following compounds :B-7, B-8, B-13, B-14, C-3, C-12, C-13, C-14, C-15, C-16, D-4, D-5, E-4, H-1, H-2, H-4, H-7, H-9, H-22, J-1, J-2, J-3, J-19, J-31, J-32, J-33, J-34, J-35, J-37, J-39, J-43, J-44, R-1, R-10, R-23, R-24, R-26, R-31, V-1, V-8.

O=C(NCCc1ncc(C(F)(F)F)cc1Cl)c1occc1Br [Compound A-4]
pest or weed control at 330 ppm [1]: ≥ 50%
pest or weed control at 330 ppm (Alternaria brassicae): ≥ 50%
pest or weed control at 330 ppm (Pyrenophora teres): ≥ 50%

Cc1oc(C(C)(C)C)cc1C(=O)NCCc1ncc(C(F)(F)F)cc1Cl [Compound B-4]
pest or weed control at 330 ppm [1]: ≥ 50%
pest or weed control at 330 ppm (Alternaria brassicae): ≥ 50%

Cc1cc(C(=O)NCCc2ncc(C(F)(F)F)cc2Cl)c(C)o1 [Compound B-7]
pest or weed control at 330 ppm (Alternaria brassicae): ≥ 50%
pest or weed control at 330 ppm (Botrytis cinerea): ≥ 50%
pest or weed control at 330 ppm (Pyrenophora teres): ≥ 50%

Cc1cc(C(=O)NCCc2ncc(C(F)(F)F)cc2Cl)c(C(F)(F)F)o1 [Compound B-8]
pest or weed control at 330 ppm [1]: ≥ 50%
pest or weed control at 330 ppm (Alternaria brassicae): ≥ 50%
pest or weed control at 330 ppm (Botrytis cinerea): ≥ 50%
pest or weed control at 330 ppm (Pyrenophora teres): ≥ 50%

Cc1occc1C(=O)NCCc1ncc(Cl)cc1Cl [Compound B-13]
pest or weed control at 330 ppm (Alternaria brassicae): ≥ 50%
pest or weed control at 330 ppm (Botrytis cinerea): ≥ 50%
pest or weed control at 330 ppm (Pyrenophora teres): ≥ 50%

O=C(NCCc1ncc(C(F)(F)F)cc1Cl)c1ccoc1I [Compound B-14]
pest or weed control at 330 ppm (Alternaria brassicae): ≥ 50%
pest or weed control at 330 ppm (Botrytis cinerea): ≥ 50%
pest or weed control at 330 ppm (Pyrenophora teres): ≥ 50%

O=C(NCCc1ncc(C(F)(F)F)cc1Cl)c1sccc1Cl [Compound C-2]
pest or weed control at 330 ppm [1]: ≥ 50%
pest or weed control at 330 ppm (Alternaria brassicae): ≥ 50%

Cc1ccsc1C(=O)NCCc1ncc(C(F)(F)F)cc1Cl [Compound C-3]
pest or weed control at 330 ppm [1]: ≥ 50%
pest or weed control at 330 ppm (Alternaria brassicae): ≥ 50%
pest or weed control at 330 ppm (Botrytis cinerea): ≥ 50%
pest or weed control at 330 ppm (Pyrenophora teres): ≥ 50%

O=C(NCCc1ncc(C(F)(F)F)cc1Cl)c1sccc1I [Compound C-12]
pest or weed control at 330 ppm [1]: ≥ 50%
pest or weed control at 330 ppm (Alternaria brassicae): ≥ 50%
pest or weed control at 330 ppm (Botrytis cinerea): ≥ 50%
pest or weed control at 330 ppm (Pyrenophora teres): ≥ 50%

O=C(NCCc1ncc(Cl)cc1Cl)c1sccc1I [Compound C-13]
pest or weed control at 330 ppm (Alternaria brassicae): ≥ 50%
pest or weed control at 330 ppm (Botrytis cinerea): ≥ 50%
pest or weed control at 330 ppm (Pyrenophora teres): ≥ 50%

O=C(NCCc1ncc(Cl)cc1Br)c1sccc1I [Compound C-16]
pest or weed control at 330 ppm (Alternaria brassicae): ≥ 50%
pest or weed control at 330 ppm (Botrytis cinerea): ≥ 50%
pest or weed control at 330 ppm (Pyrenophora teres): ≥ 50%

O=C(NCCc1ncc(C(F)(F)F)cc1Cl)c1ccsc1I [Compound D-4]
pest or weed control at 330 ppm [1]: ≥ 50%
pest or weed control at 330 ppm (Alternaria brassicae): ≥ 50%
pest or weed control at 330 ppm (Botrytis cinerea): ≥ 50%
pest or weed control at 330 ppm (Pyrenophora teres): ≥ 50%

Cc1cscc1C(=O)NCCc1ncc(C(F)(F)F)cc1Cl [Compound D-5]
pest or weed control at 330 ppm (Alternaria brassicae): ≥ 50%
pest or weed control at 330 ppm (Botrytis cinerea): ≥ 50%
pest or weed control at 330 ppm (Pyrenophora teres): ≥ 50%

Cn1cccc1C(=O)NCCc1ncc(C(F)(F)F)cc1Cl [Compound F-1]
pest or weed control at 330 ppm [1]: ≥ 50%

CC1=[SH]C(C(=O)NCCc2ncc(Cl)cc2Cl)=C(C(F)(F)F)N1 [Compound H-4]
pest or weed control at 330 ppm [1]: ≥ 50%
pest or weed control at 330 ppm (Alternaria brassicae): ≥ 50%
pest or weed control at 330 ppm (Botrytis cinerea): ≥ 50%
pest or weed control at 330 ppm (Pyrenophora teres): ≥ 50%

Cn1nc(C(=O)NCCc2ncc(C(F)(F)F)cc2Cl)c(Br)c1[N+](=O)[O-] [Compound I-3]
pest or weed control at 330 ppm [1]: ≥ 50%
pest or weed control at 330 ppm (Alternaria brassicae): ≥ 50%
pest or weed control at 330 ppm (Pyrenophora teres): ≥ 50%

Cc1nn(C)c(F)c1C(=O)NCCc1ncc(C(F)(F)F)cc1Cl [Compound J-1]
pest or weed control at 330 ppm [1]: ≥ 50%
pest or weed control at 330 ppm (Alternaria brassicae): ≥ 50%
pest or weed control at 330 ppm (Botrytis cinerea): ≥ 50%
pest or weed control at 330 ppm (Pyrenophora teres): ≥ 50%

Cc1nn(C)cc1C(=O)NCCc1ncc(C(F)(F)F)cc1Cl [Compound J-2]
pest or weed control at 330 ppm [1]: ≥ 50%
pest or weed control at 330 ppm (Alternaria brassicae): ≥ 50%
pest or weed control at 330 ppm (Botrytis cinerea): ≥ 50%
pest or weed control at 330 ppm (Pyrenophora teres): ≥ 50%

Cn1cc(C(=O)NCCc2ncc(C(F)(F)F)cc2Cl)c(C(F)F)n1 [Compound J-3]
pest or weed control at 330 ppm [1]: ≥ 50%
pest or weed control at 330 ppm (Alternaria brassicae): ≥ 50%
pest or weed control at 330 ppm (Botrytis cinerea): ≥ 50%
pest or weed control at 330 ppm (Pyrenophora teres): ≥ 50%

Cc1nn(C)cc1C(=O)NCCc1ncc(Cl)cc1Cl [Compound J-19]
pest or weed control at 330 ppm [1]: ≥ 50%
pest or weed control at 330 ppm (Alternaria brassicae): ≥ 50%
pest or weed control at 330 ppm (Botrytis cinerea): ≥ 50%
pest or weed control at 330 ppm (Pyrenophora teres): ≥ 50%

Cn1cc(C(=O)NCCc2nc(Cl)c(Cl)cc2Cl)c(C(F)(F)F)n1 [Compound J-20]
pest or weed control at 330 ppm [1]: ≥ 50%
pest or weed control at 330 ppm (Pyrenophora teres): ≥ 50%

Cc1cc(Br)cnc1CCNC(=O)c1cn(C)nc1C(F)F [Compound J-32]
pest or weed control at 330 ppm (Alternaria brassicae): ≥ 50%
pest or weed control at 330 ppm (Botrytis cinerea): ≥ 50%
pest or weed control at 330 ppm (Pyrenophora teres): ≥ 50%

Cn1cc(C(=O)NCCc2ncc(Cl)cc2F)c(C(F)F)n1 [Compound J-33]
pest or weed control at 330 ppm (Alternaria brassicae): ≥ 50%
pest or weed control at 330 ppm (Botrytis cinerea): ≥ 50%
pest or weed control at 330 ppm (Pyrenophora teres): ≥ 50%

Cn1cc(C(=O)NCCc2nc(Cl)c(Cl)cc2Cl)c(C(F)F)n1 [Compound J-34]
pest or weed control at 330 ppm (Botrytis cinerea): ≥ 50%
pest or weed control at 330 ppm (Pyrenophora teres): ≥ 50%

Cn1cc(C(=O)NCCc2ncc(Cl)cc2Br)c(C(F)F)n1 [Compound J-39]
pest or weed control at 330 ppm (Alternaria brassicae): ≥ 50%
pest or weed control at 330 ppm (Botrytis cinerea): ≥ 50%
pest or weed control at 330 ppm (Pyrenophora teres): ≥ 50%

Cc1c(F)c(F)nc(CCNC(=O)c2cn(C)nc2C(F)F)c1F [Compound J-40]
pest or weed control at 330 ppm [1]: ≥ 50%
pest or weed control at 330 ppm (Pyrenophora teres): ≥ 50%

Cn1cc(C(=O)NCCc2ncc(C(F)(F)F)cc2Cl)c(Cl)n1 [Compound J-57]
pest or weed control at 330 ppm [1]: ≥ 50%
pest or weed control at 330 ppm (Pyrenophora teres): ≥ 50%

Cn1cc(C(=O)NCCc2ncc(C(F)(F)F)cc2Cl)c(I)n1 [Compound J-58]
pest or weed control at 330 ppm [1]: ≥ 50%
pest or weed control at 330 ppm (Pyrenophora teres): ≥ 50%

Cc1cc(C(=O)NCCc2ncc(C(F)(F)F)cc2Cl)n(C(C)(C)C)n1 [Compound K-1]
pest or weed control at 330 ppm [1]: ≥ 50%

Cc1onc(-c2c(Cl)cccc2Cl)c1C(=O)NCCc1ncc(C(F)(F)F)cc1Cl [Compound M-5]
pest or weed control at 330 ppm [1]: ≥ 50%
pest or weed control at 330 ppm (Alternaria brassicae): ≥ 50%

Cc1onc(-c2c(F)cccc2Cl)c1C(=O)NCCc1ncc(C(F)(F)F)cc1Cl [Compound M-6]
pest or weed control at 330 ppm [1]: ≥ 50%
pest or weed control at 330 ppm (Alternaria brassicae): ≥ 50%

O=C(NCCc1ncc(C(F)(F)F)cc1Cl)c1cccnc1Cl [Compound R-1]
pest or weed control at 330 ppm [1]: ≥ 50%
pest or weed control at 330 ppm (Alternaria brassicae): ≥ 50%
pest or weed control at 330 ppm (Botrytis cinerea): ≥ 50%
pest or weed control at 330 ppm (Pyrenophora teres): ≥ 50%

Cc1ncccc1C(=O)NCCc1ncc(C(F)(F)F)cc1Cl [Compound R-10]
pest or weed control at 330 ppm [1]: ≥ 50%
pest or weed control at 330 ppm (Alternaria brassicae): ≥ 50%
pest or weed control at 330 ppm (Botrytis cinerea): ≥ 50%
pest or weed control at 330 ppm (Pyrenophora teres): ≥ 50%

CON=C(C)c1cnc(CCNC(=O)c2cccnc2Cl)c(Cl)c1 [Compound R-23]
pest or weed control at 330 ppm (Alternaria brassicae): ≥ 50%
pest or weed control at 330 ppm (Botrytis cinerea): ≥ 50%
pest or weed control at 330 ppm (Pyrenophora teres): ≥ 50%

O=C(NCCc1ncc(C(F)(F)F)cc1Cl)c1cccnc1Br [Compound R-26]
pest or weed control at 330 ppm [1]: ≥ 50%
pest or weed control at 330 ppm (Alternaria brassicae): ≥ 50%
pest or weed control at 330 ppm (Botrytis cinerea): ≥ 50%
pest or weed control at 330 ppm (Pyrenophora teres): ≥ 50%
